Test results as given in PMC3135787 (Antiviral research, 2011).
Read-outs that look alike come from different tables or passages of the source.

What was measured:
[1] = 8-day MTS cytotoxicity assay, BxPC3; format: cell-based, human; conditions: human
[2] = tested on: Clone A wild type replicon; experiment: Cross resistance: Clone A wild type replicon, RT-PCR; format: cell-based, HCV; conditions: Hepatitis C virus, read-out: EC90 WT replicon
[3] = 8-day MTS cytotoxicity assay, CEM; format: cell-based, human; conditions: human
CEM cells = experiment: Lactic acid production, CEM; conditions: 7 days, normalised to rDNA
[4] = 8-day MTS cytotoxicity assay, Huh7; format: cell-based, human; conditions: human
[5] = 8-day MTS cytotoxicity assay, HepG2; format: cell-based, human; conditions: human
HepG2 cells = experiment: Lactic acid production, HepG2; conditions: 7 days, normalised to rDNA
[6] = tested on: Clone A replicon with NS5B S282T; experiment: microbe, parasite or virus in culture; format: cell-based, HCV
[7] = tested on: mitochondrial COXII DNA (mtDNA); experiment: Mitochondrial COXII DNA and ribosomal DNA by real time PCR, HepG2; format: cell-based, human; conditions: human
ribosomal DNA (rDNA) [8] = experiment: as above; format: cell-based, human; conditions: human
[9] = tested on: ET replicon with NS5B S96T/N142T; experiment: microbe, parasite or virus in culture; format: cell-based, HCV
[10] = tested on: mitochondrial COXII DNA (mtDNA); experiment: Mitochondrial COXII DNA and ribosomal DNA by real time PCR, CEM; format: cell-based, human; conditions: human
ribosomal DNA (rDNA) [11] = experiment: as above; format: cell-based, human; conditions: human
[12] = tested on: primary human hepatocytes
[13] = target: recombinant NS5B genotype 3a (Hepatitis C virus genotype 3a, UniProt Q81258); experiment: NS5B polymerase assay, genotype 3a; format: biochemical, HCV
[14] = tested on: primary human hepatocytes; experiment: Metabolism of [3H]-PSI-353661 in primary human hepatocytes; format: in vitro ADME; conditions: for time to maximum intracellular concentration: continuous exposure to 5 μM [3H]-PSI-353661
[15] = target: recombinant NS5B genotype 4a (Hepatitis C virus genotype 4a, UniProt O39929); experiment: NS5B polymerase assay, genotype 4a; format: biochemical, HCV
[16] = target: S282T genotype 1b NS5B (Con1 strain) (Hepatitis C virus genotype 1b, UniProt Q9WMX2, S2701T); experiment: biochemical; parameters: species or system HCV
[17] = tested on: S282T genotype 1b NS5B (Con1 strain); experiment: biochemical; parameters: species or system HCV; conditions: genotype 1b RdRp, 5 μM NTPs
[18] = target: recombinant HCV NS5B genotype 1b (Con1 strain), wild-type (Hepatitis C virus genotype 1b, UniProt Q9WMX2); experiment: NS5B polymerase assay, genotype 1b wild-type; format: biochemical
[19] = target: recombinant NS5B genotype 2a (JFH-1 strain) (Hepatitis C virus genotype 2a, UniProt Q99IB8); experiment: NS5B polymerase assay, genotype 2a; format: biochemical, HCV
[20] = tested on: primary human hepatocytes; conditions: primary human hepatocytes from three donors
[21] = tested on: Human nucleoside diphosphate kinase (NDPK); experiment: NDPK-mediated phosphorylation, coupled assay; format: biochemical
[22] = target: 3-phosphoglycerate kinase (3-PGK) (Saccharomyces cerevisiae, UniProt P00560); experiment: Phosphorylation by 3-phosphoglycerate kinase; format: biochemical, bakers yeast; conditions: kinetic parameters unable to be determined (Km too high)
Chain of 3-phosphoglycerate kinase (3-PGK) (P00560 whole entry): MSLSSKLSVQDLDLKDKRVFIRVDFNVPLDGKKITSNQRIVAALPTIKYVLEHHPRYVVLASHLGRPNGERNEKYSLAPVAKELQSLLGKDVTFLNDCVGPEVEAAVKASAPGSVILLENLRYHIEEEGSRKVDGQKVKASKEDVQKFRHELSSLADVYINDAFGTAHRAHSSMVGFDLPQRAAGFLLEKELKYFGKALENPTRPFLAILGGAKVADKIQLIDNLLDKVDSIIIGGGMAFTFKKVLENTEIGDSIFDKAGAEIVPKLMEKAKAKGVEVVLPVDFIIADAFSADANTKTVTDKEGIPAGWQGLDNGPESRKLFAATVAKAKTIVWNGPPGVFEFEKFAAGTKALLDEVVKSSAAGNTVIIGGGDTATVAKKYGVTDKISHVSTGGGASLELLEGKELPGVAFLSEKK

rabbit muscle PK = rabbit muscle PK (Oryctolagus cuniculus, UniProt P11974); experiment: Phosphorylation by pyruvate kinase; format: biochemical; conditions: kinetic parameters unable to be determined (Km too high)
Chain of rabbit muscle PK (P11974 whole entry): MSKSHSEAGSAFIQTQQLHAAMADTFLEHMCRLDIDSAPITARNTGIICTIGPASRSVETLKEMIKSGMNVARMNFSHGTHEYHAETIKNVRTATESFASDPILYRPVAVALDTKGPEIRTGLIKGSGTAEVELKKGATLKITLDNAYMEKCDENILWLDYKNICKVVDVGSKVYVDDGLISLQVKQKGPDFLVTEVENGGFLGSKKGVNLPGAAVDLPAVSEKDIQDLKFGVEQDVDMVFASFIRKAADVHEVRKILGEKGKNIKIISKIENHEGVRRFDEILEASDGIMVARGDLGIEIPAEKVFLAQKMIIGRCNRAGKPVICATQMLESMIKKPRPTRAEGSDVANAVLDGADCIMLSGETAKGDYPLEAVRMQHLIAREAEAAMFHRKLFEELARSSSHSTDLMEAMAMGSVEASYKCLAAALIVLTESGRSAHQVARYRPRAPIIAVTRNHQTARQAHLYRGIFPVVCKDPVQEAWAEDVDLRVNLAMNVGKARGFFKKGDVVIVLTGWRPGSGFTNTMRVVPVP

[23] = target: L-alanine dehydrogenase (Ala-DH) (Bacillus subtilis, UniProt Q08352)
Chain of L-alanine dehydrogenase (Ala-DH) (Q08352 whole entry): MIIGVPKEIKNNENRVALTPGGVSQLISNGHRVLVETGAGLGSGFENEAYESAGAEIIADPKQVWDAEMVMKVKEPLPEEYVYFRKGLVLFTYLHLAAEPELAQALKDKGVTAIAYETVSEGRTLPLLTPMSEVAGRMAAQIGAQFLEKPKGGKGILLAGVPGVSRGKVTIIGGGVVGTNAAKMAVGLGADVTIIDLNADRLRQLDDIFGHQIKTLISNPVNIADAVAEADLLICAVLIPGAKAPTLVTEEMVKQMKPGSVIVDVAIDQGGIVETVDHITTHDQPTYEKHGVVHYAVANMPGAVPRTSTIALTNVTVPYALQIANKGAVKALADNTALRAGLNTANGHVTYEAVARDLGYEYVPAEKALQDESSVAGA

[24] = Hepatitis C virus, read-out: EC90 Mutant replicon

For `COc1nc(N)nc2c1ncn2[C@@H]1O[C@H](COP(=O)(N[C@@H](C)C(=O)OCC(C)(C)C)Oc2cccc3ccccc23)[C@@H](O)[C@@]1(C)O` (some centres unmarked) [INX-08189], the CC50 at 8 days [1] was 2.81 ± 1.52 µM, the EC90 [2] was 0.018 ± 0.001 µM and the CC50 at 8 days [3] was 15 ± 2 µM. The “Lactic acid (Fold change from untreated cells)” value (CEM cells; 0.1 μM) was 1.4 ± 0.35, the “Lactic acid (Fold change from untreated cells)” value (CEM cells; 1.0 μM) was 1.4 ± 0.69 and the “Lactic acid (Fold change from untreated cells)” value (CEM cells; 10 μM) was 1.5 ± 0.50. The “Lactic acid (Fold change from untreated cells)” value (CEM cells; 50 μM) was “Toxic”, the CC50 at 8 days [4] was 0.32 ± 0.03 µM and the CC50 at 8 days [5] was 2.23 ± 0.1 µM. The “Lactic acid (Fold change from untreated cells)” value (HepG2 cells; 0.1 μM) was 1.1 ± 0.21, the “Lactic acid (Fold change from untreated cells)” value (HepG2 cells; 1.0 μM) was 3.1 ± 0.61 and the “Lactic acid (Fold change from untreated cells)” value (HepG2 cells; 10 μM) was “Toxic”. The “Lactic acid (Fold change from untreated cells)” value (HepG2 cells; 50 μM) was “Toxic”, the EC90 [6, 24] was 0.11 ± 0.004 µM and the EC90 fold change ([6]; S282T mutant EC90 normalised to wild-type) was 6.1. The CC90 at 14 days [7] was 0.97 ± 0.62 µM, the CC90 at 14 days (ribosomal DNA (rDNA) [8]) was 0.75 ± 0.27 µM and the EC90 [9, 24] was 0.0059 ± 0.0027 µM. It also gave an EC90 fold change ([9]; S96T/N142T mutant EC90 normalised to wild-type) of 1.1, a CC90 at 14 days [10] of 16.9 ± 1.7 µM and a CC90 at 14 days (ribosomal DNA (rDNA) [11]) of 16.3 ± 4.1 µM.

With `CCC[C@H](NC(=O)[C@@H]1[C@H]2CCC[C@H]2CN1C(=O)[C@@H](NC(=O)[C@@H](NC(=O)c1cnccn1)C1CCCCC1)C(C)(C)C)C(=O)C(=O)NC1CC1` [telaprevir] the “effect on formation of the triphosphate PSI-352666 from PSI-353661” value [12] was “not inhibited by telaprevir in hepatocytes from two of the three donors”.

In the case of `C[C@@]1(F)[C@H](O)[C@@H](COP(=O)(O)OP(=O)(O)OP(=O)(O)O)O[C@H]1n1cnc2c(=O)[nH]c(N)nc21` [PSI-352666, 2′-deoxy-2′-α-fluoro-2′-β-C-methylguanosine-5′-triphosphate], the IC50 [13] is reported as 1.3 ± 0.5 µM, the intracellular concentration ([14]; after 4 hours of exposure to PSI-353661) is reported as > 50 µM and the “time to maximum intracellular concentration” value [14] is reported as “about 4 hours”. The IC50 [15] was 4.2 ± 0.8 µM, the IC50 [16] was 9.2 ± 1.4 µM and the “fold difference in IC50, S282T mutant vs wild-type” value [17] was ~2 fold. For the same molecule, the IC50 ([18]; IC50, genotype 1b NS5B, 1 μM NTPs) was 1 ± 0.2 µM, the IC50 ([18]; IC50, wild-type genotype 1b RdRp, 5 μM NTPs) was 4 ± 1.1 µM and the IC50 [19] was 4.7 ± 0.6 µM.

With `O=[N+]([O-])c1ccc(OP(=O)(O)Oc2ccc([N+](=O)[O-])cc2)cc1` [BNPP, bis(4-nitrophenyl)phosphate] the “effect on formation of the triphosphate PSI-352666 from PSI-353661” value [20] was “inhibited the formation of PSI-352666 in hepatocytes from three different donors in a dose-dependent manner”.

In the case of `C[C@@]1(F)[C@H](O)[C@@H](COP(=O)(O)OP(=O)(O)O)O[C@H]1n1cnc2c(=O)[nH]c(N)nc21` [PSI-353579, 2′-deoxy-2′-α-fluoro-2′-β-C –methylguanosine-5′-diphosphate], the “kcat (apparent)” value ([21]; 25 °C, PK contributed in the phosphorylation) is reported as 44.6 ± 4.9 s⁻¹, the Km ([21]; read-out: Km (apparent), 25 °C, PK contributed in the phosphorylation) is reported as 66.3 ± 2.2 µM and the “phosphorylation by 3-PGK” value [22] is reported as “Phosphorylation of PSI-353579 was also observed”. The “time to maximum intracellular concentration” value [14] was 1 to 2 h and the “phosphorylation by PK” value (rabbit muscle PK) was “Phosphorylation of PSI-353579 was also observed”.

For `C[C@H](N)C(=O)O` [alanine, L-alanine], the Vmax [23] was 0.0206 ± 0.0005 ΔA340/min.
